For 1 compound, IC50 results are on record in publication doi:10.1101/2024.12.09.627564, “Cannabinoid inhibition of mechanosensitive K^+ channels” (bioRxiv, 2024).

The target in this experiment is T1, TRAAKP259L (Homo sapiens, UniProt Q9NYG8, P233L).
T1 construct: The transcribed messages encode H. sapiens TRAAK amino acids 1–393; expressed in transfected cells; host or cells: Xenopus laevis oocytes, cRNA injection
T1 sequence (Q9NYG8 1-393 P233L): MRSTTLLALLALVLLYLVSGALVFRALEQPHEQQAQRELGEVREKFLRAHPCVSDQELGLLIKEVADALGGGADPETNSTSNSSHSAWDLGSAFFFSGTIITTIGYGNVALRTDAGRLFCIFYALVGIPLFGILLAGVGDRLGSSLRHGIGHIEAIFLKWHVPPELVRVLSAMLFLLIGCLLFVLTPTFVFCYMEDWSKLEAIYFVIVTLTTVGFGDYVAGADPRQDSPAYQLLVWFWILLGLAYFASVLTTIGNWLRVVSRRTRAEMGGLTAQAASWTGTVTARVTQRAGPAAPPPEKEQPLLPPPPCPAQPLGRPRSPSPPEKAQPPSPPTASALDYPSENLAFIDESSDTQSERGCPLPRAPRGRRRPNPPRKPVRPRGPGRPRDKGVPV
In words: Excised patch recording of TRAAK mutant P259L. In kind it is biochemical. From the text:
For patch clamp recording from Xenopus oocytes, genes encoding full-length Homo sapiens TRAAK (UniProt Q9NYG8–2), TREK-1 (UniProt O95069), and TREK-2 (UniProt P57789) were codon optimized for eukaryotic expression, synthesized (Genewiz), and cloned into a modified pGEMHE vector using Xho1 and EcoR1 restriction sites. The transcribed messages encode H. sapiens TRAAK amino acids 1–393, TREK-1 amino acids 1–426, or TREK-2 amino acids 1–538 with an additional three amino acids (SNS) at the C terminus. TRAAK mutants were introduced by polymerase chain reaction (PCR). Linearized DNA was transcribed in vitro using T7 polymerase. […] Currents were recorded at 25 °C from inside-out patches excised from oocytes 1 to 5 d after RNA injection. […]
Patches were evaluated with voltage-step protocols to confirm TRAAK expression and minimal non-specific leak based on reversal potential. Currents were recorded using an Axopatch 200B amplifier (Molecular Devices) at a bandwidth of 1 kHz and digitized with an Digidata 1550B (Molecular Devices) at 100–500 kHz using pClamp10.7 software. […] In an effort to minimize variability associated with differences in resting membrane tension, we targeted patches with low basal curvature and low resting channel activity and ensured measured pressure difference across the patch was as close to zero as possible at rest to prevent mechanical activation of channels. […]

For orientation: IC50 means the midpoint of a concentration-inhibition curve. Higher therefore signals a need for much substance.

The compound `C=C(C)[C@@H]1CCC(C)=C[C@H]1c1c(O)cc(CCCCC)cc1O` [CBD, Cannabidiol] showed an IC50 of 156 ± 8 nM.
